# Laboratory results published in ChEMBL document CHEMBL1240316, “An oxidation-sensing mechanism is used by the global regulator MgrA in Staphylococcus aureus” (2006).
# Activity calls are given as the source filed them. The rule behind the calls is not given here.
# Columns and labels:
# Staphylococcus aureus [1] = test: Antimicrobial activity against Staphylococcus aureus assessed as visible growth at 0.35 ug/ml after 24 hrs in presence of 20 uM paraquat; assay type: functional, organism-based
# Staphylococcus aureus [2] = test: Antimicrobial activity against Staphylococcus aureus assessed as visible growth at 0.45 ug/ml after 24 hrs; assay type: functional, organism-based
# Staphylococcus aureus [3] = test: Antimicrobial activity against Staphylococcus aureus assessed as visible growth at 0.65 ug/ml after 24 hrs in presence of 20 uM paraquat; assay type: functional, organism-based
# Staphylococcus aureus [4] = test: Antimicrobial activity against Staphylococcus aureus assessed as visible growth at 0.75 ug/ml after 24 hrs; assay type: functional, organism-based
# Staphylococcus aureus [5] = test: Antimicrobial activity against Staphylococcus aureus expressing mgrA C12S mutant gene assessed as visible growth at 0.25 ug/ml after 24 hrs; assay type: functional, organism-based
# Staphylococcus aureus [6] = test: Antimicrobial activity against Staphylococcus aureus expressing mgrA C12S mutant gene assessed as visible growth at 0.45 ug/ml after 24 hrs; assay type: functional, organism-based
# Staphylococcus aureus [7] = test: Antimicrobial activity against Staphylococcus aureus expressing mgrA C12S mutant gene assessed as visible growth at 0.65 ug/ml after 24 hrs; assay type: functional, organism-based
# Staphylococcus aureus [8] = test: Antimicrobial activity against Staphylococcus aureus expressing mgrA C12S mutant gene harboring Pyj335-His-mgrA C12S assessed as visible growth at 0.20 ug/ml after 24 hrs; assay type: functional, organism-based
# Staphylococcus aureus [9] = test: Antimicrobial activity against Staphylococcus aureus expressing mgrA C12S mutant gene assessed as visible growth at 0.20 ug/ml after 24 hrs in presence of 25 uM paraquat; assay type: functional, organism-based
# Staphylococcus aureus [10] = test: Antimicrobial activity against Staphylococcus aureus expressing mgrA C12S mutant gene harboring Pyj335-His-mgrA assessed as visible growth at 0.20 ug/ml after 24 hrs in presence of 25 uM paraquat; assay type: functional, organism-based
# Staphylococcus aureus [11] = test: Antimicrobial activity against Staphylococcus aureus expressing mgrA C12S mutant gene harboring plasmid Pyj335 assessed as visible growth at 0.25 ug/ml after 24 hrs in presence of 20 uM paraquat; assay type: functional, organism-based
# Staphylococcus aureus [12] = test: Antimicrobial activity against Staphylococcus aureus expressing mgrA C12S mutant gene harboring plasmid Pyj335 assessed as visible growth at 0.45 ug/ml after 24 hrs; assay type: functional, organism-based
# Staphylococcus aureus [13] = test: Antimicrobial activity against Staphylococcus aureus expressing mgrA C12S mutant gene harboring plasmid Pyj335 assessed as visible growth at 0.55 ug/ml after 24 hrs in presence of 20 uM paraquat; assay type: functional, organism-based
# Staphylococcus aureus [14] = test: Antimicrobial activity against Staphylococcus aureus expressing mgrA C12S mutant gene harboring plasmid Pyj335 assessed as visible growth at 0.75 ug/ml after 24 hrs in presence of 20 uM paraquat; assay type: functional, organism-based
# Staphylococcus aureus [15] = test: Antimicrobial activity against Staphylococcus aureus expressing mgrA C12S mutant gene harboring Pyj335-His-mgrA assessed as visible growth at 0.35 ug/ml after 24 hrs; assay type: functional, organism-based
# Staphylococcus aureus [16] = test: Antimicrobial activity against Staphylococcus aureus expressing mgrA C12S mutant gene harboring Pyj335-His-mgrA assessed as visible growth at 0.35 ug/ml after 24 hrs in presence of 20 uM paraquat; assay type: functional, organism-based
# Staphylococcus aureus [17] = test: Antimicrobial activity against Staphylococcus aureus expressing mgrA C12S mutant gene harboring Pyj335-His-mgrA assessed as visible growth at 0.55 ug/ml after 24 hrs in presence of 20 uM paraquat; assay type: functional, organism-based
# Staphylococcus aureus [18] = test: Antimicrobial activity against Staphylococcus aureus expressing mgrA C12S mutant gene harboring Pyj335-His-mgrA assessed as visible growth at 0.75 ug/ml after 24 hrs in presence of 20 uM paraquat; assay type: functional, organism-based
# Staphylococcus aureus [19] = test: Antimicrobial activity against Staphylococcus aureus expressing mgrA C12S mutant gene harboring Pyj335-His-mgrA assessed as visible growth at 2.6 ug/ml after 24 hrs in presence of 20 uM paraquat; assay type: functional, organism-based
# Staphylococcus aureus [20] = test: Antimicrobial activity against Staphylococcus aureus assessed as visible growth at 0.6 ug/ml after 24 hrs; assay type: functional, organism-based
# Staphylococcus aureus [21] = test: Antimicrobial activity against Staphylococcus aureus assessed as visible growth at 1 ug/ml after 24 hrs; assay type: functional, organism-based
# Staphylococcus aureus [22] = test: Antimicrobial activity against Staphylococcus aureus assessed as visible growth at 1 ug/ml after 24 hrs in presence of 20 uM paraquat; assay type: functional, organism-based
# Staphylococcus aureus [23] = test: Antimicrobial activity against Staphylococcus aureus assessed as visible growth at 1.4 ug/ml after 24 hrs; assay type: functional, organism-based
# Staphylococcus aureus [24] = test: Antimicrobial activity against Staphylococcus aureus expressing mgrA C12S mutant gene assessed as visible growth at 0.6 ug/ml after 24 hrs in presence of 20 uM paraquat; assay type: functional, organism-based
# Staphylococcus aureus [25] = test: Antimicrobial activity against Staphylococcus aureus expressing mgrA C12S mutant gene assessed as visible growth at 1 ug/ml after 24 hrs in presence of 20 uM paraquat; assay type: functional, organism-based
# Staphylococcus aureus [26] = test: Antimicrobial activity against Staphylococcus aureus expressing mgrA C12S mutant gene assessed as visible growth at 1.4 ug/ml after 24 hrs; assay type: functional, organism-based
# Staphylococcus aureus [27] = test: Antimicrobial activity against Staphylococcus aureus expressing mgrAC12S mutant gene harboring plasmid Pyj335-His-mgrA C12S assessed as highest concentration at which growth was visible after 24 hrs; assay type: functional
# Staphylococcus aureus [28] = test: Antimicrobial activity against Staphylococcus aureus expressing mgrA C12S mutant gene harboring plasmid Pyj335-His-mgrA assessed as visible growth at 1.1 ug/ml after 24 hrs; assay type: functional, organism-based
# Staphylococcus aureus [29] = test: Antimicrobial activity against Staphylococcus aureus expressing mgrA C12S mutant gene harboring plasmid Pyj335-His-mgrA assessed as visible growth at 1.1 ug/ml after 24 hrs in presence of 100 uM hydrogen peroxide; assay type: functional, organism-based
# Staphylococcus aureus [30] = test: Antimicrobial activity against Staphylococcus aureus assessed as visible growth at 1.1 ug/ml after 24 hrs in presence of 25 uM paraquat; assay type: functional, organism-based
# Staphylococcus aureus [31] = test: Antimicrobial activity against Staphylococcus aureus expressing mgrA C12S mutant gene harboring plasmid Pyj335 assessed as visible growth at 1.1 ug/ml after 24 hrs in presence of 25 uM paraquat; assay type: functional, organism-based
# Staphylococcus aureus [32] = test: Antimicrobial activity against Staphylococcus aureus expressing mgrA C12S mutant gene harboring Pyj335-His-mgrA C12S assessed as visible growth at 1.1 ug/ml after 24 hrs in presence of 25 uM of paraquat; assay type: functional, organism-based
# Staphylococcus aureus [33] = test: Antimicrobial activity against Staphylococcus aureus expressing mgrA C12S mutant gene harboring plasmid Pyj335 assessed as visible growth at 0.6 ug/ml after 24 hrs in presence of 20 uM paraquat; assay type: functional, organism-based
# Staphylococcus aureus [34] = test: Antimicrobial activity against Staphylococcus aureus expressing mgrA C12S mutant gene harboring plasmid Pyj335 assessed as visible growth at 1.8 ug/ml after 24 hrs; assay type: functional, organism-based
# Staphylococcus aureus [35] = test: Antimicrobial activity against Staphylococcus aureus expressing mgrA C12S mutant gene harboring Pyj335-His-mgrA assessed as visible growth at 0.6 ug/ml after 24 hrs in presence of 20 uM paraquat; assay type: functional, organism-based
# Staphylococcus aureus [36] = test: Antimicrobial activity against Staphylococcus aureus expressing mgrA C12S mutant gene harboring Pyj335-His-mgrA assessed as visible growth at 1 ug/ml after 24 hrs in presence of 20 uM paraquat; assay type: functional, organism-based
# Staphylococcus aureus [37] = test: Antimicrobial activity against Staphylococcus aureus expressing mgrA C12S mutant gene harboring Pyj335-His-mgrA assessed as visible growth at 1.4 ug/ml after 24 hrs; assay type: functional, organism-based
# Staphylococcus aureus [38] = test: Antimicrobial activity against Staphylococcus aureus expressing mgrA C12S mutant gene harboring Pyj335-His-mgrA assessed as visible growth at 1.8 ug/ml after 24 hrs; assay type: functional, organism-based
smiles,measurement,setting,value
O=C(O)c1cn(C2CC2)c2cc(N3CCNCC3)c(F)cc2c1=O [CIPROFLOXACIN],Activity,Staphylococcus aureus [1],inactive
same,Activity,Staphylococcus aureus [2],Active
same,Activity,Staphylococcus aureus [3],Active
same,Activity,Staphylococcus aureus [4],Active
same,Activity,Staphylococcus aureus [5],inactive
same,Activity,Staphylococcus aureus [6],inactive
same,Activity,Staphylococcus aureus [7],inactive
same,Activity,Staphylococcus aureus [8],Active
same,Activity,Staphylococcus aureus [9],inactive
same,Activity,Staphylococcus aureus [10],Active
same,Activity,Staphylococcus aureus [11],inactive
same,Activity,Staphylococcus aureus [12],inactive
same,Activity,Staphylococcus aureus [13],inactive
same,Activity,Staphylococcus aureus [14],Active
same,Activity,Staphylococcus aureus [15],Active
same,Activity,Staphylococcus aureus [16],inactive
same,Activity,Staphylococcus aureus [17],inactive
same,Activity,Staphylococcus aureus [18],Active
CN[C@H](CC(C)C)C(=O)N[C@H]1C(=O)N[C@@H](CC(N)=O)C(=O)N[C@H]2C(=O)N[C@H]3C(=O)N[C@H](C(=O)N[C@H](C(=O)O)c4cc(O)cc(O)c4-c4cc3ccc4O)[C@H](O)c3ccc(c(Cl)c3)Oc3cc2cc(c3O[C@@H]2O[C@H](CO)[C@@H](O)[C@H](O)[C@H]2O[C@H]2C[C@](C)(N)[C@H](O)[C@H](C)O2)Oc2ccc(cc2Cl)[C@H]1O [VANCOMYCIN],Activity,Staphylococcus aureus [19],Active
same,Activity,Staphylococcus aureus [20],inactive
same,Activity,Staphylococcus aureus [21],inactive
same,Activity,Staphylococcus aureus [22],inactive
same,Activity,Staphylococcus aureus [23],Active
same,Activity,Staphylococcus aureus [24],inactive
same,Activity,Staphylococcus aureus [25],inactive
same,Activity,Staphylococcus aureus [26],inactive
same,Activity,Staphylococcus aureus [27],1 µg/mL
same,Activity,Staphylococcus aureus [28],Active
same,Activity,Staphylococcus aureus [29],Active
same,Activity,Staphylococcus aureus [30],Active
same,Activity,Staphylococcus aureus [31],inactive
same,Activity,Staphylococcus aureus [32],Active
same,Activity,Staphylococcus aureus [33],inactive
same,Activity,Staphylococcus aureus [34],inactive
same,Activity,Staphylococcus aureus [35],inactive
same,Activity,Staphylococcus aureus [36],inactive
same,Activity,Staphylococcus aureus [37],Active
same,Activity,Staphylococcus aureus [38],Active
